Earlier results on three compounds are cited in patent US10463679B2, “Compressed capsules for giving birth to males” (priority 2016, dated 2019).

The conditions of data set [1]: sodium and chloride intake per day.
For data set [2], the system named is mice. To be noted: for mice.
The conditions of data set [3]: manufacturer's web site and prescription accompanying Florinef tablet.
For data set [4] the following is noted: one liter administered intravenously; glucose 5% + water, saline 9% sodium chloride + water, albumin.

For `[Cl-].[Na+]` [Sodium chloride], the harmful dose in data set [1] is listed as 1000 g per day. Further, the lethal dose in data set [2] is reported as 2.5 g/kg per day.

Turning to `C[C@]12CCC(=O)C=C1CC[C@H]1[C@@H]3CC[C@](O)(C(=O)CO)[C@@]3(C)C[C@H](O)[C@@]12F` [Fludrocortisone], the “side effects of the drug” value in data set [3] was “skin thinning and fragility”.

Take Saline: in data set [4], the “distribution of the solution among the three regions (intracellular, intercellular, blood vessels)” value is “distributed among the three regions but precipitated in the intercellular region”.
